According to the NIST ThermoML archive (doi:10.1016/j.jct.2013.05.029):

What was measured:
[1] = refractive index (other wavelength) (dimensionless); xn = mol fraction of the nth substance listed; settings: 101 kPa, Liquid, Wavelength=633 nm, Standard Abbe refractometry
[2] = 101.33 kPa, Liquid, Vibrating tube method
[3] = refractive index (other wavelength) (dimensionless); settings: 101 kPa, Liquid, Wavelength=633 nm, Standard Abbe refractometry
[4] = relative permittivity at various frequencies (dimensionless); settings: 101 kPa, Liquid, Frequency=0.151 MHz, Parallel plate capacitor

OCCC(F)(F)C(F)(F)C(F)(F)C(F)(F)C(F)(F)C(F)(F)F [1H,1H,2H,2H-perfluorooctanol] + CCCCn1cc[n+](C)c1.F[B-](F)(F)F
[1]
Settings | refractive index
568.17 K, x2 = 0.483 | 1.3609
568.17 K, x2 = 0.975 | 1.417
569.9 K, x2 = 0.514 | 1.3635
569.9 K, x2 = 0.972 | 1.4162
570.62 K, x2 = 0.528 | 1.3648
570.62 K, x2 = 0.969 | 1.4157
571.13 K, x2 = 0.539 | 1.3658
571.13 K, x2 = 0.967 | 1.4153
571.88 K, x2 = 0.555 | 1.3673
571.88 K, x2 = 0.963 | 1.4146
572.59 K, x2 = 0.569 | 1.3686
572.59 K, x2 = 0.96 | 1.414
573.11 K, x2 = 0.585 | 1.3701
573.11 K, x2 = 0.958 | 1.4137
573.58 K, x2 = 0.595 | 1.3712
573.58 K, x2 = 0.953 | 1.4128
574.07 K, x2 = 0.61 | 1.3726
574.07 K, x2 = 0.946 | 1.4119
574.57 K, x2 = 0.62 | 1.3736
574.57 K, x2 = 0.944 | 1.4115
575.11 K, x2 = 0.641 | 1.3757
575.11 K, x2 = 0.935 | 1.4102
575.59 K, x2 = 0.663 | 1.378
575.59 K, x2 = 0.93 | 1.4096
576.09 K, x2 = 0.684 | 1.3803
576.09 K, x2 = 0.917 | 1.4078
576.69 K, x2 = 0.729 | 1.3852
576.69 K, x2 = 0.892 | 1.4045

CCCCn1cc[n+](C)c1.F[B-](F)(F)F [1-butyl-3-methylimidazolium tetrafluoroborate]
Settings | mass density [kg/m3] | refractive index
[2], 291.15 K | 1206.3 | –
[2], 293.15 K | 1204.9 | –
[2], 295.14 K | 1203.5 | –
[2], 298.15 K | 1201.3 | –
[2], 300.14 K | 1199.9 | –
[2], 303.15 K | 1197.7 | –
[2], 305.14 K | 1196.3 | –
[2], 308.15 K | 1194.1 | –
[2], 310.14 K | 1192.7 | –
[3], 292.99 K | – | 1.4207
[3], 298.14 K | – | 1.4194
[3], 300.94 K | – | 1.4187
[3], 303.06 K | – | 1.4182
[3], 307.96 K | – | 1.4169

OCCC(F)(F)C(F)(F)C(F)(F)C(F)(F)C(F)(F)C(F)(F)F [1H,1H,2H,2H-perfluorooctanol]
Settings | mass density [kg/m3] | refractive index | relative permittivity
[2], 291.15 K | 1692.2 | – | –
[2], 293.15 K | 1688.7 | – | –
[2], 295.14 K | 1685.2 | – | –
[2], 298.15 K | 1679.9 | – | –
[2], 300.14 K | 1676.4 | – | –
[2], 303.15 K | 1671 | – | –
[2], 305.14 K | 1667.5 | – | –
[2], 308.15 K | 1662.1 | – | –
[2], 310.14 K | 1658.5 | – | –
[3], 292.89 K | – | 1.3152 | –
[3], 297.98 K | – | 1.3134 | –
[3], 300.94 K | – | 1.3125 | –
[3], 304.98 K | – | 1.3112 | –
[3], 307.95 K | – | 1.3101 | –
[3], 308.13 K | – | 1.31 | –
[4], 293.15 K | – | – | 9.67
[4], 298.15 K | – | – | 9.21
[4], 303.15 K | – | – | 8.83
[4], 308.15 K | – | – | 8.46
[4], 313.15 K | – | – | 8.12
